Measured values taken from patent US10828315B2 (Madrigal Pharmaceuticals, Inc., priority 2013, dated 2020).

test system: HER2; assay: HER2 degradation assay with BT-474 cell line (Example 12, FACS); assay type: cell-based, human; details: not given
Source text: HER2 has emerged as a key target for anticancer drugs due to its intrinsic involvement in the phosphatidylinositol-3-kinase-Akt/protein kinase B (PI3K-Akt) and the mitogen-activated protein kinase (MAPK) pathways, both of which suppress apoptosis and promote tumor cell survival, gene transcription, angiogenesis, cellular proliferation, migration, mitosis, and differentiation. The degradation of HER2 is a measure of efficacy of anticancer therapeutics that target Hsp90. Accordingly, the SDC-TRAP molecules of the invention that comprise a binding moiety that binds Hsp90 were tested in the following HER2 degradation assay.
BT-474 cells (human breast cancer cell line ATCC HTB-20) were obtained from ATCC and seeded into 12-well tissue culture plates at 0.2×10^6/1.8 mL/well. […] Each test compound was titrated in 4-fold dilutions from 5 μM to 78 nM with DMSO and 200 μL of the titration was added to each well of the cell plate. The DMSO final concentration was 0.2%. Cells were incubated overnight at 37° C. in 5% CO2.
Media was decanted from the plate, cells were washed 1× in PBS. 400 μL trypsin (EDTA) per well was added, and the cells were incubated for 2 to 3 minutes. Cells were collected into FACS tubes containing 1 ml culture medium to neutralize the trypsin and were centrifuged for 5 minutes at 1200 rpm. Supernatant was decanted and the cells were resuspended in 5 μL FITC (anti HER2/nu)/200 μL staining buffer (1×PBS+1% FBS+0.05% Sodium Azide)/tube. Controls were 5 μL IgG isotype control and staining buffer only. Tubes were incubated for 30 minutes in the dark at room temperature. 1 mL staining buffer was added to each tube and the tubes were centrifuged for 6 minutes at 1200 rpm. The supernatant was decanted and 300 μL staining buffer was added to each tube, which was store at 4° C. fpr FACS (cytometer) analysis. The cytometer readout was normalized and the potency of each compound is evaluated with IC50 calculated with XLfit™ software.

Point of comparison: `CCc1c2c(nc3ccc(O)cc13)-c1cc3c(c(=O)n1C2)COC(=O)C3(CC)OC(=O)N1CCN(Cc2ccc(-n3c(O)nnc3-c3cc(C(C)C)c(O)cc3O)cc2F)CC1` (stereo not drawn) [SDC-TRAP-0079, 4,11-diethyl-9-hydroxy-3,14-dioxo-3,4,12,14-tetrahydro-1H-pyrano[3′,4′:6,7]indolizino[1,2-b]quinolin-4-yl 4-(4-(3-(2,4-dihydroxy-5-isopropylphenyl)-5-hydroxy-4H-1,2,4-triazol-4-yl)-2-fluorobenzyl)piperazine-1-carboxylate], IC50 1.43 µM. Against it:
- CC(C)c1cc(-c2nnc(O)n2-c2ccc(CN3CCN(C(=O)Oc4ccc5c(c4)C[C@@H](CCCCCCCCC[S+]([O-])CCCC(F)(F)C(F)(F)F)[C@@H]4[C@@H]5CC[C@]5(C)[C@@H](O)CC[C@@H]45)CC3)cc2)c(O)cc1O (stereo partly drawn) [SDC-TRAP-0148, (7R,8R,9S,13S,14S,17S)-17-hydroxy-13-methyl-7-(9-((4,4,5,5,5-pentafluoropentyl)sulfinyl)nonyl)-7,8,9,11,12,13,14,15,16,17-decahydro-6H-cyclopenta[a]phenanthren-3-yl 4-(4-(3-(2,4-dihydroxy-5-isopropylphenyl)-5-hydroxy-4H-1,2,4-triazol-4-yl)benzyl)piperazine-1-carboxylate] — 2.1-fold higher, 3.04 µM
- CCc1c2c(nc3ccc(OC(=O)N(C)CC(=O)N4CCC(CCn5ccc6cc(-n7c(O)nnc7-c7cc(C(C)C)c(O)cc7O)ccc65)CC4)cc13)-c1cc3c(c(=O)n1C2)COC(=O)[C@]3(O)CC [SDC-TRAP-0207, (S)-4,11-diethyl-4-hydroxy-3,14-dioxo-3,4,12,14-tetrahydro-1H-pyrano[3′,4′:6,7]indolizino[1,2-b]quinolin-9-yl (2-(4-(2-(5-(3-(2,4-dihydroxy-5-isopropylphenyl)-5-hydroxy-4H-1,2,4-triazol-4-yl)-1H-indol-1-yl)ethyl)piperidin-1-yl)-2-oxoethyl)(methyl)carbamate] — higher, > 5 µM
- CCc1c2c(nc3ccc(O)cc13)-c1cc3c(c(=O)n1C2)COC(=O)[C@@]3(CC)OC(=O)N1CCN(c2ccc(-n3c(O)nnc3-c3cc(C(C)C)c(O)cc3O)cn2)CC1 [SDC-TRAP-0091, (S)-4,11-diethyl-9-hydroxy-3,14-dioxo-3,4,12,14-tetrahydro-1H-pyrano[3′,4′:6,7]indolizino[1,2-b]quinolin-4-yl 4-(5-(3-(2,4-dihydroxy-5-isopropylphenyl)-5-hydroxy-4H-1,2,4-triazol-4-yl)pyridin-2-yl)piperazine-1-carboxylate] — higher, > 5 µM
- CCc1c2c(nc3ccc(OC(=O)N4CCC(Oc5ccc(-n6c(O)nnc6-c6cc(C(C)C)c(O)cc6O)cc5)CC4)cc13)-c1cc3c(c(=O)n1C2)COC(=O)[C@]3(O)CC [SDC-TRAP-0011, (S)-4,11-diethyl-4-hydroxy-3,14-dioxo-3,4,12,14-tetrahydro-1H-pyrano[3′,4′:6,7]indolizino[1,2-b]quinolin-9-yl 4-(4-(3-(2,4-dihydroxy-5-isopropylphenyl)-5-hydroxy-4H-1,2,4-triazol-4-yl)phenoxy) piperidine-1-carboxylate] — higher, > 5 µM
- CCc1c2c(nc3ccc(O)cc13)-c1cc3c(c(=O)n1C2)COC(=O)C3(CC)OC(=O)N1CCN(c2ccc(-n3c(O)nnc3-c3cc(C(C)C)c(O)cc3O)cc2)CC1 (stereo not drawn) [SDC-TRAP-0081, 4,11-diethyl-9-hydroxy-3,14-dioxo-3,4,12,14-tetrahydro-1H-pyrano[3′,4′:6,7]indolizino[1,2-b]quinolin-4-yl-4-(4-(3-(2,4-dihydroxy-5-isopropylphenyl)-5-hydroxy-4H-1,2,4-triazol-4-yl)phenyl)piperazine-1-carboxylate] — 2.3-fold lower, 0.622 µM

same assay, conditions: BT-474 cells, overnight

In the case of `CCOC(=O)c1nnc(-c2cc(C(C)C)c(O)cc2O)n1-c1ccc(CN2CCC(C(=O)N[C@H]3C[C@H](O[C@H]4C[C@](O)(C(=O)CO)Cc5c(O)c6c(c(O)c54)C(=O)c4c(OC)cccc4C6=O)O[C@@H](C)[C@H]3O)CC2)cc1` [SDC-TRAP-0142, ethyl-5-(2,4-dihydroxy-5-isopropylphenyl)-4-(4-((4-(((2S,3S,4S,6R)-3-hydroxy-2-methyl-6-(((1S,3S)-3,5,12-trihydroxy-3-(2-hydroxyacetyl)-10-methoxy-6,11-dioxo-1,2,3,4,6,11-hexahydrotetracen-1-yl)oxy)tetrahydro-2H-pyran-4-yl)carbamoyl)piperidin-1-yl)methyl)phenyl)-4H-1,2,4-triazole-3-carboxylate], the IC50 is reported as greater than 10 µM.

test system: not listed separately; assay: Mouse plasma stability protocol, up to 1 h (Examples 16-18); details: % Remaining of parent after 1 h incubation in mouse plasma at 37° C. (10 μM)
Procedure: 150 ng/mL solution of SDC-TRAP-0002 in methanol was prepared using the internal standard spiking solution. This solution was used to precipitate all plasma samples in the study. 200 μL was pipetted into a 96 deepwell plate over dry ice. 10 μL of 1 mM stock in DMSO was added to a 1.5 mL microfuge tube, then 990 μL of plasma. Samples were mixed by vortex, then 50 μL of each sample was added in triplicate to a 96-well plate containing internal standard solution. This was designated the 0 hour time point sample. 250 μL of the remaining plasma sample was added to each of four 96 deepwell plates—one per time point. Samples were incubated at 37° C. with gentle shaking for 0.25, 0.5, and 1 hour. After each time point, one plate of each sample was removed from the shaker and placed on wet ice for approximately 2 minutes. 50 μL at plasma aliquots (in triplicate) were added to the deepwell plate containing internal standard solution. After the last time point was extracted, the 96 deepwell plate was vortexed, then centrifuged at 2-8° C. 150 μL of supernatant was collected and 25 μL at of water was added. Samples were mixed and analyzed by LC-MS/MS.
990 μL mouse plasma aliquots from a common stock were spiked with 10 μL of 1 mM stock of one of seven SDC-TRAP samples identified in the table below. Each sample was mixed and divided into 250 μL aliquots, each representing time points 0, 15 minutes, 30 minutes or 1 hour. At the prescribed time point, 3×50 μL samples were each mixed with 200 μL of methanol containing internal standard and held on dry ice until all time point samples were extracted. The samples collectively were vortex mixed for 1.5 minutes at 1500 rpm, then centrifuged at 4400 rpm for 10 minutes at 8° C.

Point of comparison: `CCNC(=O)c1nnc(-c2cc(C(C)C)c(O)cc2O)n1-c1ccc(S(=O)(=O)N2CCC(C(=O)N3CCN(C(=O)Oc4ccc5nc6c(c(CC)c5c4)Cn4c-6cc5c(c4=O)COC(=O)C5(O)CC)CC3)CC2)cc1` (stereo not drawn) [SDC-TRAP-0383, 4,11-diethyl-4-hydroxy-3,14-dioxo-3,4,12,14-tetrahydro-1H-pyrano[3′,4′:6,7]indolizino[1,2-b]quinolin-9-yl 4-(1-((4-(3-(2,4-dihydroxy-5-isopropylphenyl)-5-(ethylcarbamoyl)-4H-1,2,4-triazol-4-yl)phenyl)sulfonyl)piperidine-4-carbonyl)piperazine-1-carboxylate], “% Remaining (1 h)” value 47.6%. Against it:
- CCNC(=O)c1noc(-c2cc(C(C)C)c(O)cc2O)c1-c1ccc(CN2CCN(C(=O)Oc3ccc4nc5c(c(CC)c4c3)Cn3c-5cc4c(c3=O)COC(=O)C4(O)CC)CC2)cc1 (stereo not drawn) [SDC-TRAP-0236, 4,11-diethyl-4-hydroxy-3,14-dioxo-3,4,12,14-tetrahydro-1H-pyrano[3′,4′:6,7]indolizino[1,2-b]quinolin-9-yl 4-(4-(5-(2,4-dihydroxy-5-isopropylphenyl)-3-(ethylcarbamoyl)isoxazol-4-yl)benzyl)piperazine-1-carboxylate] — higher, 60.8%
- CCNC(=O)c1nnc(-c2cc(C(C)C)c(O)cc2O)n1-c1ccc(CN2CCC(C(=O)N3CCC(C(=O)OC4(CC)C(=O)OCc5c4cc4n(c5=O)Cc5c-4nc4ccc(O)cc4c5CC)CC3)CC2)cc1 (stereo not drawn) [SDC-TRAP-0076, 4,11-diethyl-9-hydroxy-3,14-dioxo-3,4,12,14-tetrahydro-1H-pyrano[3′,4′:6,7]indolizino[1,2-b]quinolin-4-yl 1-(1-(4-(3-(2,4-dihydroxy-5-isopropylphenyl)-5-(ethylcarbamoyl)-4H-1,2,4-triazol-4-yl)benzyl)piperidine-4-carbonyl)piperidine-4-carboxylate] — higher, 96.0%
- CCNC(=O)c1nnc(-c2cc(C(C)C)c(O)cc2O)n1-c1ccc(S(=O)(=O)N2CCC(C(=O)N3CCN(C(=O)Oc4ccc5nc6c(c(CC)c5c4)Cn4c-6cc5c(c4=O)COC(=O)C5(O)CC)C(C)C3)CC2)cc1 (stereo not drawn) [SDC-TRAP-0396, 4,11-diethyl-4-hydroxy-3,14-dioxo-3,4,12,14-tetrahydro-1H-pyrano[3′,4:6,7]indolizino[1,2-b]quinolin-9-yl 4-(1-((4-(3-(2,4-dihydroxy-5-isopropylphenyl)-5-(ethylcarbamoyl)-4H-1,2,4-triazol-4-yl)phenyl)sulfonyl)piperidine-4-carbonyl)-2-methylpiperazine-1-carboxylate] — higher, 71.6%
- CCNC(=O)c1nnc(-c2cc(C(C)C)c(O)cc2O)n1-c1ccc2c(c1)CN(C(=O)Oc1ccc3nc4c(c(CC)c3c1)Cn1c-4cc3c(c1=O)COC(=O)C3(O)CC)C2 (stereo not drawn) [SDC-TRAP-0392, 4,11-diethyl-4-hydroxy-3,14-dioxo-3,4,12,14-tetrahydro-1H-pyrano[3′,4′:6,7]indolizino[1,2-b]quinolin-9-yl 5-(3-(2,4-dihydroxy-5-isopropylphenyl)-5-(ethylcarbamoyl)-4H-1,2,4-triazol-4-yl)isoindoline-2-carboxylate] — lower, 44.7%
- CCc1c2c(nc3ccc(O)cc13)-c1cc3c(c(=O)n1C2)COC(=O)[C@@]3(CC)OC(=O)CN1CCC(CCc2ccc(-n3c(O)nnc3-c3cc(C(C)C)c(O)cc3O)cc2)CC1 [SDC-TRAP-0106, (S)-4,11-diethyl-9-hydroxy-3,14-dioxo-3,4,12,14-tetrahydro-1H-pyrano[3′,4′:6,7]indolizino[1,2-b]quinolin-4-yl 2-(4-(4-(3-(2,4-dihydroxy-5-isopropylphenyl)-5-hydroxy-4H-1,2,4-triazol-4-yl)phenethyl)piperidin-1-yl)acetate] — higher, 114%
- CCc1c2c(nc3ccc(OC(=O)N(C)CC(=O)N4CCC(CCn5ccc6cc(-n7c(O)nnc7-c7cc(C(C)C)c(O)cc7O)ccc65)CC4)cc13)-c1cc3c(c(=O)n1C2)COC(=O)[C@]3(O)CC [SDC-TRAP-0337, (S)-4,11-diethyl-4-hydroxy-3,14-dioxo-3,4,12,14-tetrahydro-1H-pyrano[3′,4′: 6,7]indolizino[1,2-b]quinolin-9-yl (2-(4-(2-(5-(3-(2,4-dihydroxy-5-isopropylphenyl)-5-hydroxy-4H-1,2,4-triazol-4-yl)-1H-indol-1-yl)ethyl)piperidin-1-yl)-2-oxoethyl)(methyl)carbamate] — higher, 77.3%

same assay, conditions: mouse plasma, 1 h, 37° C.

In the case of `CCNC(=O)c1nnc(-c2cc(C(C)C)c(O)cc2O)n1-c1ccc(CN2CCC(C(=O)N3CCC(C(=O)OC4(CC)C(=O)OCc5c4cc4n(c5=O)Cc5c-4nc4ccc(O)cc4c5CC)CC3)CC2)cc1` (stereo not drawn) [SDC-TRAP-0076, 4,11-diethyl-9-hydroxy-3,14-dioxo-3,4,12,14-tetrahydro-1H-pyrano[3′,4′:6,7]indolizino[1,2-b]quinolin-4-yl 1-(1-(4-(3-(2,4-dihydroxy-5-isopropylphenyl)-5-(ethylcarbamoyl)-4H-1,2,4-triazol-4-yl)benzyl)piperidine-4-carbonyl)piperidine-4-carboxylate], the “% Remaining (1 h, 37° C.)” value is reported as 96%.
